Measurements from patent US20260184710A1, “CASITAS B-LINEAGE LYMPHOMA PROTOONCOGENE B (CBL-B) DEGRADING COMPOUNDS AND ASSOCIATED METHODS OF USE” (Arvinas Operations, Inc., priority 2022, published 2026).

Key:
[1] = target: T1, Cbl-b (Homo sapiens, UniProt Q13191); experiment: Cbl-b Degradation Method B (Nano-Glo HiBiT lytic detection); format: cell-based; settings: Cbl-b-HiBit KI Jurkat Cells, incubated at least 6-24 hours; for DC50: half maximal degradation, read-out: Cbl-b Degredation Method B IC50; for Dmax: maximum degradation observed, read-out: Cbl-b Degredation Method B Dmax (%)
T1 construct: Cbl-b-HiBit KI Jurkat Cells were purchased from Promega; host or cells: Cbl-b-HiBiT knock-in Jurkat cells
Method in brief: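 Cbl-b-HiBiT knock-in Jurkat cells (20,000/well) were treated after ~24 h plating with an 11-point 1:3 series for 6-24 h at 37° C. Remaining Cbl-b measured by Nano-Glo HiBiT lytic luminescence. DC50 and Dmax expressed as % of control.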

[2] = target: T1, Cbl-b; experiment: Cbl-b Degradation Method A (FACS, anti-Cbl-b antibody staining); format: cell-based; settings: Cbl-b-HiBit KI Jurkat Cells, incubated at least 20 hours; for DC50: half maximal degradation, read-out: Cbl-b Degredation Method A IC50; for Dmax: Jurkat, maximum degradation observed, read-out: Cbl-b Degredation Method A Dmax (%)
Method in brief: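 Cbl-b-HiBit KI Jurkat cells treated with compound for at least 20 h at 37 °C, then fixed, permeabilized and stained with anti-Cbl-b antibody plus anti-rabbit AF488 secondary. Cbl-b levels read by FACS; DC50 and Dmax (percent of control) derived.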

T1 sequence (Q13191 whole entry): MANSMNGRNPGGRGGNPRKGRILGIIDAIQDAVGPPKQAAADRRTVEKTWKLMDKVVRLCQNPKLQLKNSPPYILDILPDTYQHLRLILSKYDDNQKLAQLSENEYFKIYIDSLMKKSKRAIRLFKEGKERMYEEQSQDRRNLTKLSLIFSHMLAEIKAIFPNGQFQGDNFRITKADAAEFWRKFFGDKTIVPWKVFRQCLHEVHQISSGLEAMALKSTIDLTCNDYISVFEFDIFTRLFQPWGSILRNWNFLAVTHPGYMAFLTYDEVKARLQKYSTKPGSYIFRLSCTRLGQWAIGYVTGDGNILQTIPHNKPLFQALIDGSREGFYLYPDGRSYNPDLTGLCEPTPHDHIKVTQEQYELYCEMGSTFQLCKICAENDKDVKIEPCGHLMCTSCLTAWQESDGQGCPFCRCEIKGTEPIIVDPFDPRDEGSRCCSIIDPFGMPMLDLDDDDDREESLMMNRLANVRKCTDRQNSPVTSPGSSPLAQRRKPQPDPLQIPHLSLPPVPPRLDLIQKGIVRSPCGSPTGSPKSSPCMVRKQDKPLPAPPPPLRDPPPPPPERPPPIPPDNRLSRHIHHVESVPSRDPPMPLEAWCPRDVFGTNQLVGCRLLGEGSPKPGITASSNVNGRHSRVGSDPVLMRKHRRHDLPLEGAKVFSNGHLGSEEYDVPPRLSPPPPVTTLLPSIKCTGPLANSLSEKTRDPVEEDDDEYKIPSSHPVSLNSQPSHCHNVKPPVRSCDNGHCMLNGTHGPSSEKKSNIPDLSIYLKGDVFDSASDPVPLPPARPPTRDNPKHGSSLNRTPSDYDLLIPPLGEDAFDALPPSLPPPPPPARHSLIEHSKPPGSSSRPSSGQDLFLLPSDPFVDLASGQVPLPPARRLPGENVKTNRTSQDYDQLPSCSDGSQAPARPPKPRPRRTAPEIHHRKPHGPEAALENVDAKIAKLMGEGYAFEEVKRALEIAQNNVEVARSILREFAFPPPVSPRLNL

Cn1cnnc1CC1(c2cccc(N3Cc4c(cc(N5CCC[C@H](CN6CCC(CN7CCC(CN8CCN(c9ccc%10c(c9)C(=O)N(C9CCC(=O)NC9=O)C%10=O)CC8)CC7)CC6)C5)cc4C(F)(F)F)C3=O)c2)COC1 (stereo partly drawn) [Example 16, 2-(2,6-dioxo-3-piperidyl)-5-[4-[[1-[[1-[[(3R)-1-[2-[3-[3-[(4-methyl-1,2,4-triazol-3-yl)methyl]oxetan-3-yl]phenyl]-3-oxo-7-(trifluoromethyl)isoindolin-5-yl]-3-piperidyl]methyl]-4-piperidyl]methyl]-4-piperidyl]methyl]piperazin-1-yl]isoindoline-1,3-dione]
DC50 [1]: 5 to 50 nM | Dmax [1]: < 35% | DC50 [2]: 50 to 500 nM | Dmax [2]: > 70%

Cn1cnnc1CC1(c2cccc(N3Cc4c(cc(NCC[C@H]5CC[C@H](OC6CCN(c7ccc8c(c7F)CN(C7CCC(=O)NC7=O)C8=O)CC6)CC5)cc4C(F)(F)F)C3=O)c2)COC1 (stereo partly shown) [Example 17, 3-[4-fluoro-5-[4-[4-[2-[[2-[3-[3-[(4-methyl-1,2,4-triazol-3-yl)methyl]oxetan-3-yl]phenyl]-3-oxo-7-(trifluoromethyl)isoindolin-5-yl]amino]ethyl]cyclohexoxy]-1-piperidyl]-1-oxo-isoindolin-2-yl]piperidine-2,6-dione]
DC50 [1]: > 500 nM | DC50 [2]: > 500 nM

Cn1cnnc1CC1(c2cccc(NC(=O)c3cc(N4CC5(CCN(CC6CCN(c7ccc8c(c7)C(=O)N(C7CCC(=O)NC7=O)C8=O)CC6)CC5)C4)nc(C4CC4)n3)c2)COC1 (stereo not shown) [Example 18, 2-cyclopropyl-6-[7-[[1-[2-(2,6-dioxo-3-piperidyl)-1,3-dioxo-isoindolin-5-yl]-4-piperidyl]methyl]-2,7-diazaspiro[3.5]nonan-2-yl]-N-[3-[3-[(4-methyl-1,2,4-triazol-3-yl)methyl]oxetan-3-yl]phenyl]pyrimidine-4-carboxamide]
DC50 [1]: > 500 nM | DC50 [2]: 50 to 500 nM | Dmax [2]: < 35%

Cn1cnnc1CC1(c2cccc(NC(=O)c3cc(CN4CCC[C@H](CN5CCC(CN6CCN(c7ccc8c(c7)C(=O)N(C7CCC(=O)NC7=O)C8=O)CC6)CC5)C4)nc(C4CC4)n3)c2)COC1 (stereo partly drawn) [Example 19, 2-cyclopropyl-6-[[(3R)-3-[[4-[[4-[2-(2,6-dioxo-3-piperidyl)-1,3-dioxo-isoindolin-5-yl]piperazin-1-yl]methyl]-1-piperidyl]methyl]-1-piperidyl]methyl]-N-[3-[3-[(4-methyl-1,2,4-triazol-3-yl)methyl]oxetan-3-yl]phenyl]pyrimidine-4-carboxamide]
DC50 [1]: < 5 nM | Dmax [1]: < 35% | DC50 [2]: 50 to 500 nM

Cn1cnnc1CC1(c2cccc(N3Cc4c(cc(N5CC6(CC(CCOc7ccc8c(c7)C(=O)N(C7CCC(=O)NC7=O)C8=O)C6)C5)cc4C(F)(F)F)C3=O)c2)COC1 (stereo not shown) [Example 20, 2-(2,6-dioxo-3-piperidyl)-5-[2-[2-[2-[3-[3-[(4-methyl-1,2,4-triazol-3-yl)methyl]oxetan-3-yl]phenyl]-3-oxo-7-(trifluoromethyl)isoindolin-5-yl]-2-azaspiro[3.3]heptan-6-yl]ethoxy]isoindoline-1,3-dione]
DC50 [1]: > 500 nM | DC50 [2]: > 500 nM

Cn1cnnc1CC1(c2cccc(N3Cc4c(cc(N5CC(OCC6CCN(c7ccc8c(c7)CN(C7CCC(=O)NC7=O)C8=O)CC6)C5)cc4C(F)(F)F)C3=O)c2)COC1 (stereo not shown) [Example 21, 3-[5-[4-[[1-[2-[3-[3-[(4-methyl-1,2,4-triazol-3-yl)methyl]oxetan-3-yl]phenyl]-3-oxo-7-(trifluoromethyl)isoindolin-5-yl]azetidin-3-yl]oxymethyl]-1-piperidyl]-1-oxo-isoindolin-2-yl]piperidine-2,6-dione]
DC50 [1]: > 500 nM | DC50 [2]: > 500 nM

Cn1cnnc1CC1(c2cccc(N3Cc4c(cc(CN5CCN(C[C@H]6CC[C@H](OC7CCN(c8ccc9c(c8)C(=O)N(C8CCC(=O)NC8=O)C9=O)CC7)CC6)CC5)cc4C(F)(F)F)C3=O)c2)COC1 (stereo partly shown) [Example 22, 2-(2,6-dioxo-3-piperidyl)-5-[4-[4-[[4-[[2-[3-[3-[(4-methyl-1,2,4-triazol-3-yl)methyl]oxetan-3-yl]phenyl]-3-oxo-7-(trifluoromethyl)isoindolin-5-yl]methyl]piperazin-1-yl]methyl]cyclohexoxy]-1-piperidyl]isoindoline-1,3-dione]
DC50 [1]: < 5 nM | Dmax [1]: 35 to 70% | DC50 [2]: 5 to 50 nM | Dmax [2]: 35 to 70%

Cn1cnnc1CC1(c2cccc(N3Cc4c(cc(N5CCC(CN6CCC7(CC6)CN(c6ccc8c(c6)C(=O)N(C6CCC(=O)NC6=O)C8=O)C7)CC5)cc4C(F)(F)F)C3=O)c2)COC1 (stereo not shown) [Example 23, 2-(2,6-dioxopiperidin-3-yl)-5-[7-({1-[2-(3-{3-[(4-methyl-4H-1,2,4-triazol-3-yl)methyl]oxetan-3-yl}phenyl)-3-oxo-7-(trifluoromethyl)-2,3-dihydro-1H-isoindol-5-yl]piperidin-4-yl}methyl)-2,7-diazaspiro[3.5]nonan-2-yl]-2,3-dihydro-1H-isoindole-1,3-dione]
DC50 [1]: > 500 nM | DC50 [2]: 50 to 500 nM | Dmax [2]: < 35%

Cn1cnnc1CC1(c2cccc(N3Cc4c(cc(CN5CCC(CN6CCN(c7ccc8c(c7)C(=O)N(C7CCC(=O)NC7=O)C8=O)CC6)CC5)cc4C(F)(F)F)C3=O)c2)COC1 (stereo not shown) [Example 28, 2-(2,6-dioxopiperidin-3-yl)-5-{4-[(1-{[2-(3-{3-[(4-methyl-4H-1,2,4-triazol-3-yl)methyl]oxetan-3-yl}phenyl)-3-oxo-7-(trifluoromethyl)-2,3-dihydro-1H-isoindol-5-yl]methyl}piperidin-4-yl)methyl]piperazin-1-yl}-2,3-dihydro-1H-isoindole-1,3-dione]
DC50 [1]: > 500 nM | DC50 [2]: > 500 nM

Cn1cnnc1CC1(c2cccc(N3Cc4c(cc(CN5CCC(CN6CCC7(CC6)CCN(c6ccc8c(c6)C(=O)N(C6CCC(=O)NC6=O)C8=O)CC7)CC5)cc4C(F)(F)F)C3=O)c2)COC1 (stereo not shown) [Example 29, 2-(2,6-dioxopiperidin-3-yl)-5-{9-[(1-{[2-(3-{3-[(4-methyl-4H-1,2,4-triazol-3-yl)methyl]oxetan-3-yl}phenyl)-3-oxo-7-(trifluoromethyl)-2,3-dihydro-1H-isoindol-5-yl]methyl}piperidin-4-yl)methyl]-3,9-diazaspiro[5.5]undecan-3-yl}-2,3-dihydro-1H-isoindole-1,3-dione]
DC50 [1]: > 500 nM | DC50 [2]: > 500 nM

Cn1cnnc1CC1(c2cccc(N3Cc4c(cc(CN5CCC(CN6CCC(Oc7ccc8c(c7)C(=O)N(C7CCC(=O)NC7=O)C8=O)CC6)CC5)cc4C(F)(F)F)C3=O)c2)COC1 (stereo not shown) [Example 30, 2-(2,6-dioxopiperidin-3-yl)-5-({1-[(1-{[2-(3-{3-[(4-methyl-4H-1,2,4-triazol-3-yl)methyl]oxetan-3-yl}phenyl)-3-oxo-7-(trifluoromethyl)-2,3-dihydro-1H-isoindol-5-yl]methyl}piperidin-4-yl)methyl]piperidin-4-yl}oxy)-2,3-dihydro-1H-isoindole-1,3-dione]
DC50 [1]: > 500 nM | DC50 [2]: > 500 nM

Cn1cnnc1CC1(c2cccc(N3Cc4c(cc(CN5CCC(CN6CC7(C6)CN(c6ccc8c(c6)C(=O)N(C6CCC(=O)NC6=O)C8=O)C7)CC5)cc4C(F)(F)F)C3=O)c2)COC1 (stereo not shown) [Example 31, 2-(2,6-dioxopiperidin-3-yl)-5-{6-[(1-{[2-(3-{3-[(4-methyl-4H-1,2,4-triazol-3-yl)methyl]oxetan-3-yl}phenyl)-3-oxo-7-(trifluoromethyl)-2,3-dihydro-1H-isoindol-5-yl]methyl}piperidin-4-yl)methyl]-2,6-diazaspiro[3.3]heptan-2-yl}-2,3-dihydro-1H-isoindole-1,3-dione]
DC50 [1]: > 500 nM | DC50 [2]: > 500 nM

Cn1cnnc1CC1(c2cccc(N3Cc4c(cc(CN5CCC[C@H](CN6CCC(CN7CCC(CN8CCN(c9ccc%10c(c9F)CN(C9CCC(=O)NC9=O)C%10=O)CC8)CC7)CC6)C5)cc4C(F)(F)F)C3=O)c2)COC1 (stereo partly drawn) [Example 74, 3-{4-fluoro-5-[4-({1-[(1-{[(3R)-1-{[2-(3-{3-[(4-methyl-4H-1,2,4-triazol-3-yl)methyl]oxetan-3-yl}phenyl)-3-oxo-7-(trifluoromethyl)-2,3-dihydro-1H-isoindol-5-yl]methyl}piperidin-3-yl]methyl}piperidin-4-yl)methyl]piperidin-4-yl}methyl)piperazin-1-yl]-1-oxo-2,3-dihydro-1H-isoindol-2-yl}piperidine-2,6-dione]
DC50 [1]: < 5 nM | Dmax [1]: > 70% | DC50 [2]: 5 to 50 nM | Dmax [2]: > 70%

Cn1cnnc1CC1(c2cccc(N3Cc4c(cc(CN5CCC(CC6CCN(c7ccc8c(c7)C(=O)N(C7CCC(=O)NC7=O)C8=O)CC6)C5)cc4C(F)(F)F)C3=O)c2)COC1 (stereo not shown) [Example 75, 2-(2,6-dioxopiperidin-3-yl)-5-{4-[(1-{[2-(3-{3-[(4-methyl-4H-1,2,4-triazol-3-yl)methyl]oxetan-3-yl}phenyl)-3-oxo-7-(trifluoromethyl)-2,3-dihydro-1H-isoindol-5-yl]methyl}pyrrolidin-3-yl)methyl]piperidin-1-yl}-2,3-dihydro-1H-isoindole-1,3-dione]
DC50 [1]: > 500 nM | DC50 [2]: > 500 nM
